The assay has as its target Protein Kinase C beta 2 (PKCβII) (Homo sapiens (Human), UniProt P05771). Nature of the assay: PKCβII coupled PK/LDH spectrophotometric kinase assay. The following applies: apparent Ki, ATP-competitive model (Morrison equation); 0.1 mM ATP, 30° C.; read-out: PKCb Ki. The assay is classed as biochemical. The protocol: This transfer is coupled to the oxidation of β-NADH through the activities of Pyruvate Kinase (PK) and Lactate Dehydrogenase (LDH). β-NADH conversion to NAD+ is monitored by the decrease in absorbance at 340 nm (e=6.22 cm^−1 mM^−1) using a Molecular Devices SPECTRA max PLUS spectrophotometer.
A typical assay was carried out on a 96-well, clear microtiter plate in a Molecular Devices spectrophotometer for 20 minutes at 30° C. in 0.1 mL of assay buffer containing 50 mM HEPES, pH 7.4, 5 nM PKC, 23 units of pyruvate kinase, 33 units of lactate dehydrogenase, 0.15 mM peptide, 0.1 mM ATP, 1 mM DTT, 4 mM PEP, 8 mM MgCl2, 0.3 mM NADH, 60 mM CaCl2, 10 mg/mL PS, 50 ng/mL PMA, 7.5% DMSO and from about 10,000 nM to 0.169 nM compound inhibitor. Stock solutions of 3-sn-phosphatidyl-L-serine (PS) and phorbol-12-myristate-13-acetate (PMA) were sonicated for 30 seconds just prior to addition to assay buffer and assays were initiated by the addition of 100 μM ATP.
Enzyme turnover values (kcat) were calculated according to […], where [E] is the total enzyme concentration. Enzyme inhibition constants (apparent K values) were determined by fitting initial velocities at variable inhibitor concentrations to a model for ATP competitive inhibition based on the Morrison equation). Morrison, J. F., Biochim. Biophys Acta 185: 269-286 (1969).

Each structure is given as a SMILES string.

Chain of Protein Kinase C beta 2 (PKCβII) (P05771 other isoform, or with tags, fused parts or gaps): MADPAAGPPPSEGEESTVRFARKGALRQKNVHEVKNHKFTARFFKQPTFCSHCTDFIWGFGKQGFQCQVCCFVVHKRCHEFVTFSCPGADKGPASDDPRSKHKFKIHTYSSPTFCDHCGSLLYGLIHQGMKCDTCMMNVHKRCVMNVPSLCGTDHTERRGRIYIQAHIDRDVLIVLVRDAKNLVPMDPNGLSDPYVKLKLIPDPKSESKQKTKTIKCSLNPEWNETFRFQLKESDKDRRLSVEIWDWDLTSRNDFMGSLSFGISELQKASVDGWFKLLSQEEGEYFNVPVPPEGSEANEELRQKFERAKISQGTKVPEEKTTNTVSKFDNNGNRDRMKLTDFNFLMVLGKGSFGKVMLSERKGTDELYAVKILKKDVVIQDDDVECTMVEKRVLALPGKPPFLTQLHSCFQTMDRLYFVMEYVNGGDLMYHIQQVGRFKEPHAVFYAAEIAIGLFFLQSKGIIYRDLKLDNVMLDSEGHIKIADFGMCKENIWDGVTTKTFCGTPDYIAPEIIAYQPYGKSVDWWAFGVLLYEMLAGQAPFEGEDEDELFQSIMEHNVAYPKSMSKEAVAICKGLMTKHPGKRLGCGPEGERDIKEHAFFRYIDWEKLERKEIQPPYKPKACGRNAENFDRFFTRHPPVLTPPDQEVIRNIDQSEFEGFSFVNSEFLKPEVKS

As to `C[C@@H]1CN(C(=O)N2Cc3c(NC(=O)c4cnccn4)n[nH]c3C2(C)C)[C@@H](C)CN1CC1CCOCC1` [Example F57], the Ki amounted to 52.7 nM.
Under `CC(C)[C@H]1CN(C)C(C)(C)CN1C(=O)N1Cc2c(NC(=O)c3ccccn3)n[nH]c2C1(C)C` [Example A134] stands 90.1 nM; under `C[C@@H]1CN(C(=O)N2Cc3c(NC(=O)c4ccccn4)n[nH]c3C2(C)C)C[C@H](C)N1` [Example A29], 77.6 nM; under `CCc1nc(C(=O)Nc2n[nH]c3c2CN(C(=O)N2C[C@@H](C)N(CC4CCOCC4)C[C@@H]2C)C3(C)C)cs1` [Example F25], 33.3 nM.
Turning to `C[C@H]1CN2CCC[C@H]2CN1C(=O)N1Cc2c(NC(=O)c3cc4ccccc4cn3)n[nH]c2C1(C)C` [Example E3], the Ki was determined as 5.51 nM.
The result for `C[C@H]1CN2CCC[C@H]2CN1C(=O)N1Cc2c(NC(=O)c3ccc(C(F)(F)F)cn3)n[nH]c2C1(C)C` [Example A130] reads 31.5 nM; that for `COc1cc(C(=O)Nc2n[nH]c3c2CN(C(=O)N2C[C@@H]4CCCN4C[C@@H]2C)C3(C)C)nc(OC)n1` [Example A59], 94.5 nM; that for `C[C@@H]1CN(C(=O)N2Cc3c(NC(=O)c4ccc(N5CCOCC5)cn4)n[nH]c3C2(C)C)[C@@H](C)CN1C1CCOCC1` [Example F52], less than 10 nM.
For `C[C@@H]1CN(C(=O)N2Cc3c(NC(=O)c4ccccn4)n[nH]c3C2(C)C)[C@@H](C)CN1CC1CCOCC1` [Example A143], the Ki amounted to 1.9 nM.
For the molecule `CC1(C)CN2CCC[C@H]2CN1C(=O)N1Cc2c(NC(=O)c3ccccn3)n[nH]c2C1(C)C` [Example A82], the Ki turned out to be 81.8 nM.
The result for `Cc1cc(C(=O)Nc2n[nH]c3c2CN(C(=O)N2C[C@@H](C)N(CC4CCOCC4)C[C@@H]2C)C3(C)C)no1` [Example F13] reads 41.1 nM; that for `CC[C@H]1CN2CCC[C@@]2(C)CN1C(=O)N1Cc2c(NC(=O)c3ccc(F)cn3)n[nH]c2C1(C)C` [Example A139], 75.2 nM.
Under `CC1(C)c2[nH]nc(NC(=O)c3cccc(Cl)n3)c2CN1C(=O)N1CCN2CCCC2C1` (stereo not shown) [Example A23] stands 55.9 nM; under `C[C@H]1CN2C[C@H]3CC3[C@H]2CN1C(=O)N1Cc2c(NC(=O)c3ccccn3)n[nH]c2C1(C)C` (stereo partly shown) [Example A104], 83.7 nM.
Under `CCc1ccc(C(=O)Nc2n[nH]c3c2CN(C(=O)N2C[C@@H](C)N(C4CCOCC4)C[C@@H]2C)C3(C)C)nc1` [Example F51] stands less than 10 nM.
`C[C@@H]1CN(C(=O)N2Cc3c(NC(=O)c4coc(C5CC5)n4)n[nH]c3C2(C)C)[C@@H](C)CN1C` [Example C8]: the Ki stood at 25 nM.
Under `CC1(C)c2[nH]nc(NC(=O)c3cccs3)c2CN1C(=O)N1CCN2CCCC2C1` (stereo not shown) [Example A15] stands 136 nM.
Under `C[C@H]1CN2CCC[C@H]2CN1C(=O)N1Cc2c(NC(=O)c3cc4cccn4cn3)n[nH]c2C1(C)C` [Example A76] stands 13.9 nM; under `C[C@H]1CN2CCC[C@H]2CN1C(=O)N1Cc2c(NC(=O)C3CCCCO3)n[nH]c2C1(C)C` (stereo partly shown) [Example A112], 186 nM.
Take `Cc1nonc1C(=O)Nc1n[nH]c2c1CN(C(=O)N1C[C@@H](C)N(CC3CCOCC3)C[C@@H]1C)C2(C)C` [Example F22]: the Ki was found to be 47.3 nM.
The result for `CC1(C)CN2CCC[C@H]2CN1C(=O)N1Cc2c(NC(=O)c3ccccn3)n[nH]c2C1(C)C` [Example A81] reads 125 nM.
Under `CCc1cc(C(=O)Nc2n[nH]c3c2CN(C(=O)N2C[C@@H](C)N(CCCOC)C[C@@H]2C)C3(C)C)n(C)n1` [Example F4] stands 37.3 nM; under `C[C@@H]1CN(C(=O)N2Cc3c(NC(=O)c4ncccn4)n[nH]c3C2(C)C)[C@@H](C)CN1CC1CCOCC1` [Example F58], 133 nM.
Under `CCC1(CC)c2[nH]nc(NC(=O)c3ccccn3)c2CN1C(=O)N1C[C@@H]2CCCN2C[C@@H]1C` [Example A132] stands 61.9 nM; under `C[C@@H]1CN(C(=O)N2Cc3c(NC(=O)c4ccccn4)n[nH]c3C2(C)C)[C@@H](C)CN1CCCC#N` [Example A141], 23.6 nM.
For the molecule `COc1cccc(C(=O)Nc2n[nH]c3c2CN(C(=O)N2C[C@@H]4CCCN4C[C@@H]2C)C3(C)C)c1` [Example E5], the Ki worked out at 37.5 nM.
Under `CN1CCN(C(=O)N2Cc3c(NC(=O)c4ccc5ccccc5n4)n[nH]c3C2(C)C)[C@@H](Cc2ccccc2)C1` [Example A8] stands 78.1 nM; under `CCCN1C[C@H](C)N(C(=O)N2Cc3c(NC(=O)c4ccc(F)cc4F)n[nH]c3C2(C)C)C[C@H]1CCO` [Example A102], 45.9 nM; under `CC1(C)c2[nH]nc(NC(=O)c3cccc(Oc4ccccc4)c3)c2CN1C(=O)N1CCNCC1c1ccccc1` (stereo not shown) [Example A10], 55.9 nM.
Under `C[C@H]1CN2CCC[C@H]2CN1C(=O)N1Cc2c(NC(=O)c3ccc4ccccc4n3)n[nH]c2C1(C)C` [Example A88] stands 17.8 nM; under `C[C@H]1CN2CCC[C@H]2CN1C(=O)N1Cc2c(NC(=O)c3ccc(F)cn3)n[nH]c2C1(C)C` [Example A92], 20.3 nM.
As for `CC[C@@H]1CN(C(=O)N2Cc3c(NC(=O)c4ccccn4)n[nH]c3C2(C)C)[C@@H](C)CN1C` [Example A131], the Ki turned out to be 37.2 nM.
Under `CC(C)[C@H]1CN2CCC[C@H]2CN1C(=O)N1Cc2c(NC(=O)c3ccc(F)cc3F)n[nH]c2C1(C)C` [Example A101] stands 148 nM; under `C[C@H]1CN2CCC[C@H]2CN1C(=O)N1Cc2c(NC(=O)c3ccccn3)n[nH]c2C1(C)C` [Example A1, N-(6,6-Dimethyl-5-((3S,8aS)-3-methyl-octahydropyrrolo[1,2-a]pyrazine-2-carbonyl)-1,4,5,6-tetrahydropyrrolo[3,4-c]pyrazol-3-yl)picolinamide], 29.2 nM.
The result for `C[C@H]1CN2CCC[C@H]2CN1C(=O)N1Cc2c(NC(=O)c3cc(C(F)(F)F)ccc3F)n[nH]c2C1(C)C` [Example A35] reads 176 nM.
Consider `COc1cccc(C(=O)Nc2n[nH]c3c2CN(C(=O)N2C[C@@H]4CCCN4C[C@@H]2C)C3(C)C)c1` [Example A39], for which the Ki came out at 47.4 nM.
Consider `CCc1cc(C(=O)Nc2n[nH]c3c2CN(C(=O)N2C[C@@H](C)N(CC4CCOCC4)C[C@@H]2C)C3(C)C)on1` [Example F18], for which the Ki came to 32.1 nM.
Under `COc1ccc(C(=O)Nc2n[nH]c3c2CN(C(=O)N2C[C@@H]4CCCN4C[C@@H]2C)C3(C)C)cc1` [Example A40] stands 32.7 nM.
For the molecule `CN1CCN(C(=O)N2Cc3c(n[nH]c3NC(=O)c3cc4ccccc4s3)C2(C)C)[C@@H](Cc2ccccc2)C1` [Example A4], the Ki came out at 146 nM.
Under `C[C@@H]1CN(C(=O)N2Cc3c(NC(=O)c4cn(C)cn4)n[nH]c3C2(C)C)[C@@H](C)CN1CC1CCOCC1` [Example F9] stands 62.4 nM; under `C[C@@H]1CN(C(=O)N2Cc3c(NC(=O)c4ccc(F)cn4)n[nH]c3C2(C)C)[C@@H](C)CN1CCCO` [Example A162], 21.7 nM.
Under `C[C@H]1CN2CCC[C@H]2CN1C(=O)N1Cc2c(NC(=O)c3cncs3)n[nH]c2C1(C)C` [Example A43] stands 135 nM.
The result for `Cc1cccc(C(=O)Nc2n[nH]c3c2CN(C(=O)N2C[C@@H]4CCCN4C[C@@H]2C)C3(C)C)c1` [Example A65] reads 54.5 nM.
For the molecule `CC[C@H]1CN(C(=O)N2Cc3c(NC(=O)c4ccccn4)n[nH]c3C2(C)C)[C@@H](C)CN1C` [Example A125], the Ki came to 93.9 nM.
The result for `C[C@H]1CN(C)[C@H](CCO)CN1C(=O)N1Cc2c(NC(=O)c3ccccn3)n[nH]c2C1(C)C` [Example A150] reads 42 nM.
The result for `COCCCN1C[C@H](C)N(C(=O)N2Cc3c(NC(=O)c4cnccn4)n[nH]c3C2(C)C)C[C@H]1C` [Example F3] reads 625 nM; that for `C[C@H]1CN2CCC[C@H]2CN1C(=O)N1Cc2c(NC(=O)c3cnc4ccccc4n3)n[nH]c2C1(C)C` [Example E7], 12.5 nM.
The result for `C[C@H]1CN(C)C(C)(C)CN1C(=O)N1Cc2c(NC(=O)c3ccc(F)cc3F)n[nH]c2C1(C)C` [Example A114] reads 87.1 nM; that for `COCCCN1C[C@H](C)N(C(=O)N2Cc3c(NC(=O)c4oc(C)cc4C)n[nH]c3C2(C)C)C[C@H]1C` [Example F5], 71.8 nM; that for `Cc1nc(C)c(C(=O)Nc2n[nH]c3c2CN(C(=O)N2C[C@@H](C)N(CC4CCOCC4)C[C@@H]2C)C3(C)C)s1` [Example F10], 22.6 nM.
As to `Cc1nc(C(=O)Nc2n[nH]c3c2CN(C(=O)N2C[C@@H](C)N(C)C[C@@H]2C)C3(C)C)cs1` [Example C3], the Ki was found to be 35.1 nM.
Under `Cc1nc(C)c(C(=O)Nc2n[nH]c3c2CN(C(=O)N2C[C@@H](C)N(C)C[C@@H]2C)C3(C)C)o1` [Example C2] stands 50.3 nM.
Under `CC[C@H]1CN2CCC[C@H]2CN1C(=O)N1Cc2c(NC(=O)c3cccc(Cl)c3)n[nH]c2C1(C)C` [Example A71] stands 49.9 nM; under `C[C@@H]1CN(C(=O)N2Cc3c(NC(=O)c4ccccn4)n[nH]c3C2(C)C)[C@@H](C)CN1CCOCCO` [Example A156], 108 nM.
Under `C[C@H]1CN2CCC[C@H]2CN1C(=O)N1Cc2c(NC(=O)c3cc(N(C)C)ccn3)n[nH]c2C1(C)C` [Example A87] stands 32.3 nM.

These data come from patent US8999981B2, “3-amido-pyrrolo[3,4-C]pyrazole-5(1H, 4H,6H) carbaldehyde derivatives” (Pfizer Inc., priority 2007, dated 2015).
